Measurements reported in patent US6716883B1, “Composition useful to treat periodontal disease” (priority 1998, dated 2004).

What was measured:
rat bone marrow cultures [1] = assay: APA in rat bone marrow cultures treated with BaP; type: cell-based; conditions: increasing concentrations of BaP, ten-day old cultures
Protocol: In this experiment, the effects of the aryl hydrocarbon, benzo-a-pyrene (BaP) on the early events occurring during osteogenesis were determined. Ten-day old rat bone marrow cultures were treated with increasing concentrations of BaP. The effect of this treatment was monitored by APA as set out above.

rat bone marrow cultures [2] = assay: Mineral levels in rat bone marrow cultures treated with BaP; type: cell-based; conditions: BaP at 10^−8M

c1ccc2c(c1)cc1ccc3cccc4ccc2c1c34 [BaP, benzo-a-pyrene, reference compound]
inhibition of alkaline phosphatase (rat bone marrow cultures [1]): increased inhibition of alkaline phosphatase with increasing BaP concentration
inhibition of mineral levels (rat bone marrow cultures [2]): ≤ 90%
